In ChEMBL document CHEMBL4689842, “EUbOPEN Chemogenomics Library wave 1” (2021):

Columns and labels:
Assay type in all cases: toxicity, cell-based
U2OS = experiment: Incucyte cell viability with U2OS; conditions: human, 10 µM, compound concentration 10 uM
Fibroblast = experiment: Incucyte cell viability with human fibroblast; conditions: 10 µM, compound concentration 10 uM
HEK-293T = experiment: Incucyte cell viability with HEK293T; conditions: human, 10 µM, compound concentration 10 uM
[1] = 0 h, replicate number 1, timepoint 0 hours
[2] = 6 h, replicate number 1, timepoint 6 hours
[3] = 6 h, replicate number 2, timepoint 6 hours
[4] = 12 h, replicate number 1, timepoint 12 hours
[5] = 18 h, replicate number 1, timepoint 18 hours
[6] = 24 h, replicate number 1, timepoint 24 hours
[7] = 12 h, replicate number 2, timepoint 12 hours
[8] = 18 h, replicate number 2, timepoint 18 hours
[9] = 0 h, replicate number 2, timepoint 0 hours
[10] = 24 h, replicate number 2, timepoint 24 hours
Further: filed as whole numbers so only -1 and 0 and 1 occur.

Question: With `CN(CCOc1ccc(CC2SC(=O)NC2=O)cc1)c1ccccn1` (stereo unspecified) [ROSIGLITAZONE] as the compound, how does the “Growth Rate” value (U2OS; [1]) read?
Answer: 0

Question: What about the “Growth Rate” value (U2OS; [2]) of the same compound?
Answer: 0

Question: And the “Growth Rate” value (U2OS; [3])?
Answer: 1

Question: And the “Growth Rate” value (U2OS; [4])?
Answer: 1

Question: And the “Growth Rate” value (U2OS; [5])?
Answer: 1

Question: What about the “Growth Rate” value (U2OS; [6]) of the same compound?
Answer: 1

Question: What about the “Growth Rate” value (Fibroblast; [1]) of the same compound?
Answer: 0

Question: And the “Growth Rate” value (Fibroblast; [3])?
Answer: 0

Question: And the “Growth Rate” value (Fibroblast; [4])?
Answer: 1

Question: What about the “Growth Rate” value (Fibroblast; [7]) of the same compound?
Answer: 0

Question: And the “Growth Rate” value (Fibroblast; [5])?
Answer: 1

Question: What about the “Growth Rate” value (Fibroblast; [8]) of the same compound?
Answer: 0

Question: What about the “Growth Rate” value (Fibroblast; [6]) of the same compound?
Answer: 1

Question: And the “Growth Rate” value (HEK-293T; [1])?
Answer: 1

Question: And the “Growth Rate” value (HEK-293T; [9])?
Answer: 0

Question: And the “Growth Rate” value (HEK-293T; [2])?
Answer: 1

Question: And the “Growth Rate” value (HEK-293T; [3])?
Answer: 0

Question: What about the “Growth Rate” value (HEK-293T; [4]) of the same compound?
Answer: 1

Question: And the “Growth Rate” value (HEK-293T; [7])?
Answer: 0

Question: What about the “Growth Rate” value (HEK-293T; [5]) of the same compound?
Answer: 1

Question: And the “Growth Rate” value (HEK-293T; [8])?
Answer: 0

Question: What about the “Growth Rate” value (HEK-293T; [6]) of the same compound?
Answer: 1

Question: What about the “Growth Rate” value (HEK-293T; [10]) of the same compound?
Answer: 0

Question: What does the source list for `Cc1cc(OCC(=O)O)cc(C)c1Cc1ccc(O)c(C(C)C)c1` [SOBETIROME]?
Answer: Growth Rate (U2OS; [9]): 0; Growth Rate (U2OS; [3]): 0; Growth Rate (U2OS; [4]): 1; Growth Rate (U2OS; [5]): 0; Growth Rate (U2OS; [8]): 1; Growth Rate (U2OS; [6]): 1; Growth Rate (Fibroblast; [1]): 0; Growth Rate (Fibroblast; [2]): -1; Growth Rate (Fibroblast; [3]): 0; Growth Rate (Fibroblast; [7]): 0; Growth Rate (Fibroblast; [5]): 1; Growth Rate (Fibroblast; [6]): 0; Growth Rate (Fibroblast; [10]): 1; Growth Rate (HEK-293T; [1]): 0; Growth Rate (HEK-293T; [2]): 0; Growth Rate (HEK-293T; [4]): 0; Growth Rate (HEK-293T; [5]): 0; Growth Rate (HEK-293T; [8]): 1; Growth Rate (HEK-293T; [6]): 0; Growth Rate (HEK-293T; [10]): 1

Question: Which results are given for `O=C1c2ccc(Nc3ccc(F)cc3F)cc2CCc2ccc(OC[C@H](O)CO)cc21` [Skepinone-L]?
Answer: Growth Rate (U2OS; [1]): 0; Growth Rate (U2OS; [2]): 0; Growth Rate (U2OS; [4]): 0; Growth Rate (U2OS; [5]): 0; Growth Rate (U2OS; [8]): 1; Growth Rate (U2OS; [6]): 0; Growth Rate (Fibroblast; [2]): 0; Growth Rate (Fibroblast; [4]): 0; Growth Rate (Fibroblast; [5]): 0; Growth Rate (Fibroblast; [6]): 0; Growth Rate (HEK-293T; [2]): 0; Growth Rate (HEK-293T; [6]): 1

Question: For `COc1cccc(CNC(=O)c2nc3scc(COCc4ccc(C(=O)O)cc4)c3c(=O)[nH]2)c1` [T-26c], which “Growth Rate” value (U2OS; [1]) is on record?
Answer: 0

Question: What about the “Growth Rate” value (U2OS; [2]) of the same compound?
Answer: 1

Question: And the “Growth Rate” value (U2OS; [3])?
Answer: 0

Question: What about the “Growth Rate” value (U2OS; [4]) of the same compound?
Answer: 1

Question: What about the “Growth Rate” value (U2OS; [7]) of the same compound?
Answer: 0

Question: And the “Growth Rate” value (U2OS; [5])?
Answer: 1

Question: What about the “Growth Rate” value (U2OS; [6]) of the same compound?
Answer: 1

Question: And the “Growth Rate” value (Fibroblast; [9])?
Answer: 0

Question: What about the “Growth Rate” value (Fibroblast; [3]) of the same compound?
Answer: 0

Question: What about the “Growth Rate” value (Fibroblast; [4]) of the same compound?
Answer: 1

Question: And the “Growth Rate” value (Fibroblast; [7])?
Answer: 0

Question: What about the “Growth Rate” value (Fibroblast; [5]) of the same compound?
Answer: 1

Question: What about the “Growth Rate” value (Fibroblast; [8]) of the same compound?
Answer: 0

Question: And the “Growth Rate” value (Fibroblast; [6])?
Answer: 1

Question: And the “Growth Rate” value (HEK-293T; [1])?
Answer: 0

Question: What about the “Growth Rate” value (HEK-293T; [9]) of the same compound?
Answer: 1

Question: What about the “Growth Rate” value (HEK-293T; [5]) of the same compound?
Answer: 1

Question: What about the “Growth Rate” value (HEK-293T; [6]) of the same compound?
Answer: 1

Question: `CCOC(=O)c1ccc(C#Cc2ccc3c(c2)C(C)(C)CCS3)nc1` [TAZAROTENE] was tested. Which “Growth Rate” value (U2OS; [9]) did it give?
Answer: 0

Question: What about the “Growth Rate” value (U2OS; [3]) of the same compound?
Answer: 1

Question: What about the “Growth Rate” value (U2OS; [4]) of the same compound?
Answer: 0

Question: What about the “Growth Rate” value (U2OS; [7]) of the same compound?
Answer: 1

Question: What about the “Growth Rate” value (U2OS; [5]) of the same compound?
Answer: 0

Question: And the “Growth Rate” value (U2OS; [8])?
Answer: 1

Question: And the “Growth Rate” value (U2OS; [6])?
Answer: 0

Question: And the “Growth Rate” value (U2OS; [10])?
Answer: 1

Question: And the “Growth Rate” value (Fibroblast; [1])?
Answer: 0

Question: What about the “Growth Rate” value (Fibroblast; [4]) of the same compound?
Answer: 1

Question: And the “Growth Rate” value (Fibroblast; [5])?
Answer: 1

Question: And the “Growth Rate” value (Fibroblast; [6])?
Answer: 0

Question: And the “Growth Rate” value (HEK-293T; [9])?
Answer: 0

Question: And the “Growth Rate” value (HEK-293T; [2])?
Answer: 0

Question: What about the “Growth Rate” value (HEK-293T; [3]) of the same compound?
Answer: 1

Question: And the “Growth Rate” value (HEK-293T; [4])?
Answer: 0

Question: What about the “Growth Rate” value (HEK-293T; [5]) of the same compound?
Answer: 0

Question: What about the “Growth Rate” value (HEK-293T; [6]) of the same compound?
Answer: 0

Question: `Cc1ccc2[nH]c(CNCCCc3ccncc3)cc(=O)c2c1` [UCSF924NC] was tested. Which “Growth Rate” value (U2OS; [2]) did it give?
Answer: 0

Question: And the “Growth Rate” value (U2OS; [4])?
Answer: 0

Question: What about the “Growth Rate” value (U2OS; [7]) of the same compound?
Answer: 1

Question: And the “Growth Rate” value (U2OS; [5])?
Answer: 0

Question: And the “Growth Rate” value (U2OS; [8])?
Answer: 1

Question: What about the “Growth Rate” value (U2OS; [6]) of the same compound?
Answer: 0

Question: What about the “Growth Rate” value (Fibroblast; [1]) of the same compound?
Answer: 1

Question: And the “Growth Rate” value (Fibroblast; [2])?
Answer: 0

Question: And the “Growth Rate” value (Fibroblast; [4])?
Answer: 0

Question: And the “Growth Rate” value (Fibroblast; [5])?
Answer: 0

Question: What about the “Growth Rate” value (Fibroblast; [6]) of the same compound?
Answer: 0

Question: What about the “Growth Rate” value (HEK-293T; [1]) of the same compound?
Answer: 1

Question: What about the “Growth Rate” value (HEK-293T; [9]) of the same compound?
Answer: 0

Question: What about the “Growth Rate” value (HEK-293T; [2]) of the same compound?
Answer: 0

Question: What about the “Growth Rate” value (HEK-293T; [3]) of the same compound?
Answer: 1

Question: And the “Growth Rate” value (HEK-293T; [4])?
Answer: 0

Question: And the “Growth Rate” value (HEK-293T; [7])?
Answer: 1

Question: What about the “Growth Rate” value (HEK-293T; [5]) of the same compound?
Answer: 0

Question: And the “Growth Rate” value (HEK-293T; [8])?
Answer: 1

Question: And the “Growth Rate” value (HEK-293T; [6])?
Answer: 0

Question: And the “Growth Rate” value (HEK-293T; [10])?
Answer: 1

Question: Which results are given for `CC[C@@H]1CN(C(=O)NCC(F)(F)F)C[C@@H]1c1cnc2cnc3[nH]ccc3n12` [UPADACITINIB]?
Answer: Growth Rate (U2OS; [1]): 0; Growth Rate (U2OS; [9]): 1; Growth Rate (U2OS; [2]): 0; Growth Rate (U2OS; [4]): 0; Growth Rate (U2OS; [7]): 1; Growth Rate (U2OS; [5]): 0; Growth Rate (U2OS; [6]): 0; Growth Rate (Fibroblast; [1]): 0; Growth Rate (Fibroblast; [2]): 1; Growth Rate (Fibroblast; [4]): 1; Growth Rate (Fibroblast; [5]): 1; Growth Rate (Fibroblast; [6]): 1; Growth Rate (HEK-293T; [1]): 0; Growth Rate (HEK-293T; [10]): 1

Question: What does the source list for `O=C(NNS(=O)(=O)c1ccccc1)c1cc(-c2ccnnc2)ccc1F` [WM-2474]?
Answer: Growth Rate (U2OS; [1]): 1; Growth Rate (U2OS; [9]): 0; Growth Rate (U2OS; [2]): 0; Growth Rate (U2OS; [4]): 0; Growth Rate (U2OS; [5]): 0; Growth Rate (U2OS; [6]): 1; Growth Rate (U2OS; [10]): 0; Growth Rate (Fibroblast; [1]): 0; Growth Rate (Fibroblast; [3]): 0; Growth Rate (Fibroblast; [4]): 1; Growth Rate (Fibroblast; [5]): 1; Growth Rate (Fibroblast; [6]): 1; Growth Rate (HEK-293T; [1]): 0; Growth Rate (HEK-293T; [2]): 1; Growth Rate (HEK-293T; [4]): 1; Growth Rate (HEK-293T; [5]): 1; Growth Rate (HEK-293T; [6]): 0; Growth Rate (HEK-293T; [10]): 1

Question: For `CC(C)(Cc1ccccc1)NCC(O)c1ccc(O)c(NS(C)(=O)=O)c1.Cl` (stereo unspecified) [ZINTEROL HYDROCHLORIDE], which “Growth Rate” value (U2OS; [2]) is on record?
Answer: 0

Question: And the “Growth Rate” value (U2OS; [4])?
Answer: 1

Question: What about the “Growth Rate” value (U2OS; [5]) of the same compound?
Answer: 0

Question: What about the “Growth Rate” value (U2OS; [8]) of the same compound?
Answer: 1

Question: And the “Growth Rate” value (U2OS; [6])?
Answer: 1

Question: What about the “Growth Rate” value (Fibroblast; [7]) of the same compound?
Answer: 1

Question: And the “Growth Rate” value (Fibroblast; [8])?
Answer: 1

Question: What about the “Growth Rate” value (Fibroblast; [10]) of the same compound?
Answer: 1

Question: And the “Growth Rate” value (HEK-293T; [1])?
Answer: 0

Question: And the “Growth Rate” value (HEK-293T; [2])?
Answer: 1

Question: And the “Growth Rate” value (HEK-293T; [3])?
Answer: 0

Question: What about the “Growth Rate” value (HEK-293T; [4]) of the same compound?
Answer: 1

Question: What about the “Growth Rate” value (HEK-293T; [7]) of the same compound?
Answer: 0

Question: And the “Growth Rate” value (HEK-293T; [5])?
Answer: 1

Question: What about the “Growth Rate” value (HEK-293T; [8]) of the same compound?
Answer: 0

Question: What about the “Growth Rate” value (HEK-293T; [6]) of the same compound?
Answer: 1

Question: And the “Growth Rate” value (HEK-293T; [10])?
Answer: 0
